Reference: patent publication US7268139B2, “Methods of promoting osteogenesis” (Scios, Inc., priority 2002, dated 2007)

Experiments:
[1] = test system: mouse model of RA (collagen type II arthritis); assay: Murine collagen type II arthritis, early and advanced disease; assay type: in vivo
Method: A p38α MAP kinase inhibitor (compound 162, Table B) was evaluated to determine whether a p38 inhibitor could modulate cartilage and bone destruction in a mouse model of RA. Induction of RA was achieved using bovine type II cartilage (100 ug/kg, subcutaneous on days 0 and 21) and bacterial lipopolysaccharide (50 ug/mouse, intraperitoneal on day 22).
Oral treatment was vehicle alone (1% PEG 400, bid) or the p38 inhibitor (90 mg/kg bid). The duration of treatment was 10 and 20 days in mice with early onset or advanced disease, respectively. Treatment was initiated in mice with early onset or advanced disease. Disease state was determined by clinical scoring performed in a blinded protocol that assigned a maximum per paw value of 3 based upon degree of erythema and swelling observed. Early or advanced disease was judged by clinical scoring, 1.6+0.6 (mean+/−std dev) on day 24 and 9.1±2.6 on day 30, respectively.

[2] = test system: closed femur fractures in female retired breeder Sprague-Dawley rats; assay: Closed femur fracture healing in rats, histology; assay type: in vivo, rat; settings: for Fracture callus histology: two weeks post-fracture
Method: Retired breeder female Sprague-Dawley rats were purchased from Taconic Farms. The rats were housed in pairs and given food and water ad libitum. A total of 124 rats were purchased for these experiments (Table 4). However, only 65 rats were used for the final set of experiments as described in Table 4. Drugs were first administered to the rats by gavage using PEG300 (Sigma) as a carrier (0.5 ml per kg). […] The p38 MAP kinase inhibitor used in the experiments is compound 25, Table B. Rofecoxib was obtained by pulverizing Vioxx pills (Merck).
(§1) Rats were anesthetized with a ketamine-xylazine mixture. The right hindlimb was shaved, and cleansed with betadine. A medial parapatellar incision was made through the skin and underlying muscle to the distal end of the femur. The patella was dislocated laterally to expose the femoral condyles. A 20 g needle was used to drill a hole into the distal end of the femur, between the condyles, and then used to ream the femoral canal. A 0.81 mm diameter stainless steel wire was then inserted into the femoral condyle and tamped into the proximal end of the femur. The rod was then trimmed as close as possible to the femoral condyles with wire cutters. The incision was closed in two layers with resorbable Vicryl sutures. A mid-shaft transverse fracture was made in the right femur using a three-point bending device as described previously (Bonnarens, F. and Einhorn, T. A., J. Orthop. Res. 2:97-101 (1984)).
Femurs were dissected from rats at 2, 4, 6, and 8 weeks as detailed in Appendix A. Soft tissue was dissected from the femurs and the femurs were fixed overnight in buffered formalin. The femurs were then embedded in polymethylmethacrylate (PMMA) following standard procedures. Longitudinal sections (˜200 um thick) were cut from the PMMA blocks and ground and polished to a thickness of approximately 50-100 um. The sections were then stained with Van Gieson's picrofuschin and Stevenel's Blue. […] Sections were photographed with an Olympus BH2 microscope.

[3] = test system: closed femur fractures in female retired breeder Sprague-Dawley rats; assay: Closed femur fracture healing in rats, radiographic analysis; assay type: in vivo, rat; settings: for Radiographic score, Mean: Group C rats, score 0 to 4
Method: Closed femur fractures were made in female retired breeder Sprague-Dawley rats. The rats were given oral doses of the p38 MAP kinase inhibitor (compound 25, Table B)(30 mg/kg) once or twice per day and either vehicle only (control) or rofecoxib (Vioxx, 3 mg/kg, once a day) as a positive control for fracture inhibition.
(§2) Retired breeder female Sprague-Dawley rats were purchased from Taconic Farms. The rats were housed in pairs and given food and water ad libitum. A total of 124 rats were purchased for these experiments (Table 4). However, only 65 rats were used for the final set of experiments as described in Table 4. Drugs were first administered to the rats by gavage using PEG300 (Sigma) as a carrier (0.5 ml per kg). Rats were initially gavaged with drugs 6 hours after surgery (between 4 and 6 PM on day 1) and then twice/day afterwards for 5 days (between 6-8 AM and again between 5-7 PM). The p38 MAP kinase inhibitor used in the experiments is compound 25, Table B. Rofecoxib was obtained by pulverizing Vioxx pills (Merck).
as §1
Radiographs were made using an HP Faxitron and Kodak MINR2000 mammography film. Radiographs were photographed with and Olympus C-3040 digital camera for figure preparation. The 4 week post-fracture radiographs from all the rats that had survived to 4 weeks in Group C (rats 60-124) and which were not comminuted, infected, or destabilized were scored as follows. One point was assigned to each radiograph in which a cortex of the fracture callus appeared bridged and/or where the cortical bone fracture site appeared to be bridged by new bone. Thus a radiograph could have a minimal score of 0 or a maximal score of 4.

[4] = test system: closed femur fractures in female retired breeder Sprague-Dawley rats; assay: Closed femur fracture healing in rats, torsional mechanical testing; assay type: in vivo, rat
Method: Torsional mechanical testing was performed on the fractured (right) and contralateral (left) femurs from control, rofecoxib (3 mg/kg/day); p38 MAP kinase inhibitor (30 mg/kg/day), and p38 MAP kinase inhibitor (2×30 mg/kg/day). The stabilizing rods were removed from the femurs prior to testing and the femurs were wrapped in saline soaked gauze to prevent dehydration prior to testing. The ends of the femurs were potted in hex nuts with Wood's metal and the peak torque and angle failure determined using an MTS servohydraulic mechanical testing machine and a 20 Nm reaction torque load cell as per standard procedures (Simon, A. M. et al., J. Bone Miner. Res. 17:963-976 (2002)). Femur and fracture callus dimensions and gage length were measured before and after mechanical testing using digital calipers. The values obtained were used to calculate torsional rigidity, and shear stress as described (Simon, A. M. et al., J. Bone Min. Res., in press (2002)). Finally, the data was normalized as the percentage of the fractured femur relative to the contralateral femur for each animal. This helped to reduce animal-to-animal variability.
as §2, §1
Rats with oblique, comminuted, or infected fractures were not used for mechanical testing (see Appendix A). Both femora were removed and cleaned of all soft tissue leaving the fracture callus undisturbed and then immediately processed for mechanical testing. The samples were wrapped in saline soaked gauze to prevent dehydration between steps. Measurements of the femora were taken using digital calipers to determine femur length and external callus dimensions. The intramedullary pin was removed from the fractured femur. The femoral ends were potted in 1-inch hexnuts using a low melt temperature metal (Wood's metal, Alfa Aesar, Ward Mill, Mass.). Once potted, the gage length (L) of each femur was measured. Torsional testing was conducted using a servohydraulic testing machine (MTS, Eden, Praire, Minn.) with a 20 Nm reaction torque cell (Interface, Scottsdale, Ariz.). The testing was carried out to failure at a rate of 2°/sec and a data recording rate of 20 Hz. Both the fractured and intact femora were tested in internal rotation in proper anatomic orientation. The peak torque and angle at failure were calculated from the load-deformation curves. Internal fracture callus dimensions were measured after mechanical testing. […]

[5] = test system: fracture healing in rats; assay: Prior experiments: fracture healing in rats treated with a COX-2 inhibitor; assay type: in vivo, rat
Source text: The prior set of experiments examining the effects of COX-2-selective NSAIDs on fracture healing used retired breeder male Sprague-Dawley rats with an average size of approximately 600 g. To stabilize the femur fractures in these animals, a stainless steel rod with a diameter of 1.1 mm was used. This same diameter rod was continually used during the initial phases of this study even though 250-300 g retired breeder female Sprague-Dawley rats were used.

[6] = advanced disease, 90 mg/kg bid oral, 20 days
[7] = Group C, 4 weeks post-fracture, 30 mg/kg/day
[8] = Group C, 4 weeks post-fracture, 2×30 mg/kg/day
[9] = Groups A and B (rats 1-57), twice-a-day treated rats
[10] = Groups A and B, 4 weeks post-fx, 30 mg/kg/day
[11] = Groups A and B, 6 weeks post-fx, 30 mg/kg/day
[12] = Groups A and B, 6 weeks post-fx, 2×30 mg/kg/day
[13] = Groups A and B, 8 weeks post-fx, 2×30 mg/kg/day
[14] = Group C, 4 weeks post-fracture, rofecoxib 3 mg/kg/day
[15] = Groups A and B, 8 weeks post-fx, rofecoxib 3 mg/kg/day

In the case of COc1cc2c(cc1C(=O)N1CCC(Cc3ccc(F)cc3)CC1)c(C(=O)C(=O)N(C)C)cn2C [compound 25], the “cartilage and bone healing by histological assessment” value [1, 6] is reported as “evidence of cartilage and bone healing”, the “serum cartilage oligomeric matrix protein (COMP)” value [1, 6] is reported as “reduced serum cartilage oligomeric matrix protein” and the osteoclast number ([1]; advanced disease, compared to baseline and vehicle treated groups) is reported as “reduced osteoclast number”. For the same compound, the clinical scoring ([1]; treatment initiated in advanced disease, 90 mg/kg bid oral, 20 days, vehicle 9.1±2.2) was 4.9±1.7, the “Histological analysis of fracture healing (summary)” value ([2]; 30 mg/kg once or twice per day) was “enhanced fracture healing by increasing and/or accelerating calcified cartilage formation as well as new bone formation” and the “Amount of osteoclasts within the fracture callus” value ([2]; not quantified) was “appeared to approximate levels found in control rats”. The Fracture callus histology ([2]; 30 mg/kg once per day) was “a near normal amount of woven bone but more than normal amounts of chondrocytes”, the Fracture callus histology ([2]; 30 mg/kg twice per day) was “advanced healing with the fracture gap almost filled with newly formed woven bone” and the “Radiographic scores compared with control and rofecoxib” value ([3]; 4 week post-fracture radiographs, 30 mg/kg once or twice per day) was “significantly higher scores than the control or rofecoxib treated rats”. For the same compound, the “Radiographic score, Mean” value ([3]; 4 weeks post-fracture, 30 mg/kg oral once per day for 5 days) was 3.2, the “Radiographic score, Mean” value ([3]; 4 weeks post-fracture, 30 mg/kg oral twice per day for 5 days) was 3.75 and the “Effect on fracture healing (overall)” value ([3]; oral 30 mg/kg once or twice per day) was “does not negatively affect fracture healing and can actually enhance or accelerate the healing process”. The “Normalized peak torque compared with rofecoxib and control” value ([4]; Group C, 4 weeks post-fracture) was “significantly increased normalized peak torque relative to rofecoxib treated rats but not relative to the control animals”, the “NSS = normalized shear stress” value [4, 7] was 15 ± 8 and the “NTR = normalized torsional rigidity” value [4, 7] was 28 ± 24. The “NPT = normalized peak torque” value ([4]; Group C, 4 weeks post-fracture, 30 mg/kg/day, percentage of fractured relative to contralateral femur) was 50 ± 11, the “NSS = normalized shear stress” value [4, 8] was 10 ± 4 and the “NTR = normalized torsional rigidity” value [4, 8] was 61 ± 55. The “NPT = normalized peak torque” value ([4]; Group C, 4 weeks post-fracture, 2×30 mg/kg/day, percentage of fractured relative to contralateral femur) was 48 ± 14, the normalized peak torque [4, 9] was roughly 150% and the normalized torsional rigidity [4, 9] was roughly 150%. The “NPT = normalized peak torque” value [4, 10] was 57, the “NSS = normalized shear stress” value [4, 10] was 14.1 and the “NTR = normalized torsional rigidity” value [4, 10] was 69. The “NPT = normalized peak torque” value [4, 11] was 85 ± 17, the “NSS = normalized shear stress” value [4, 11] was 36 ± 11 and the “NTR = normalized torsional rigidity” value [4, 11] was 109 ± 52. For the same compound, the “NPT = normalized peak torque” value [4, 12] was 97, the “NSS = normalized shear stress” value [4, 12] was 63 and the “NTR = normalized torsional rigidity” value [4, 12] was 126. For the same compound, the “NPT = normalized peak torque” value [4, 13] was 158 ± 46, the “NSS = normalized shear stress” value [4, 13] was 45 ± 1 and the “NTR = normalized torsional rigidity” value [4, 13] was 156 ± 68.

In the case of CS(=O)(=O)c1ccc(C2=C(c3ccccc3)C(=O)OC2)cc1 [Rofecoxib, rofecoxib, reference compound], the Fracture healing [5] is reported as “dramatically impaired”, the Fibrous non-unions ([2]; rofecoxib, 5 days of treatment) is reported as “development of fibrous non-unions in some of the rofecoxib treated rats” and the Fracture callus histology ([2]; rofecoxib 3 mg/kg once a day) is reported as “less woven bone formation was observed”. The “Radiographic score, Mean” value ([3]; 4 weeks post-fracture, rofecoxib 3 mg/kg oral once a day for 5 days) was 0.83, the “Bridging of the fracture in radiographs” value ([3]; 4 weeks post-fracture, rofecoxib 3 mg/kg once a day) was “little or no bridging was evident” and the “NSS = normalized shear stress” value [4, 14] was 13 ± 9. For the same compound, the “NTR = normalized torsional rigidity” value [4, 14] was 19 ± 9, the “NPT = normalized peak torque” value ([4]; Group C, 4 weeks post-fracture, rofecoxib 3 mg/kg/day, percentage of fractured femur relative to contralateral femur) was 32 ± 3 and the “NPT = normalized peak torque” value [4, 15] was 57 ± 42. For the same compound, the “NSS = normalized shear stress” value [4, 15] was 16 ± 8 and the “NTR = normalized torsional rigidity” value [4, 15] was 100 ± 82.

For C[C@@H]1CN(Cc2ccc(F)cc2)[C@@H](C)CN1C(=O)c1cc2c(C(=O)C(=O)N(C)C)c[nH]c2cc1Cl [compound 162], the “Histological analysis of joint lesion morphology” value ([1]; treatment initiated at onset of disease, 90 mg/kg bid oral, 10 days) was “dramatic reduction in all aspects of joint lesion morphology including reduced cartilage and bone erosions” and the clinical scoring ([1]; treatment initiated at onset of disease, 90 mg/kg bid oral, 10 days, mean ± std dev, vehicle 7.0±3.4) was 2.4±1.5.
